The results in this text go back to patent publication US8993574B2, “Pyrrole antifungal agents” (F2G Ltd, priority 2008, dated 2015).

Common to all, as to type: cell-based
In assay [1] the test system is Aspergillus terreus AT4. Nature of the assay: MIC, YAG medium. As to conditions: 24 h at 35° C, MIC banded into grades; for MIC: Aspergillus terreus, read-out: MIC grade, A. terreus. In short, it runs like this:
(§1)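 OD 485 nm read-out after 24 h at 35° C; MIC = lowest concentration inhibiting growth >70% vs drug-free control, in mg/L. Inoculum 1−2×10^4 cfu/mL in YAG medium; drug range 50-0.05 mg/L, retested at 0.5-0.0005 mg/L when needed.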

The test system of assay [2] is Aspergillus fumigatus AF293. Nature of the assay: MIC, YAG medium. As to conditions: 24 h at 35° C, MIC banded into grades; for MIC: Aspergillus fumigatus, read-out: MIC grade, A. fumigatus. The gist of the method: as §1
Assay [3] relates to Aspergillus flavus. Nature of the assay: MIC, YAG medium. The settings on record: 24 h at 35° C, MIC banded into grades; for MIC: Aspergillus flavus, 24 h, read-out: MIC grade, A. flavus. In short, it runs like this:
as §1

For assay [4], the system named is Aspergillus terreus AT49. In words: MIC, YAG medium. The settings on record: 24 h at 35° C, MIC banded into grades; for MIC: Aspergillus terreus, read-out: MIC grade, A. terreus 49. In short, it runs like this: as §1
For assay [5], the system named is Aspergillus niger. In words: MIC, YAG medium. The settings on record: 24 h at 35° C, MIC banded into grades; for MIC: Aspergillus niger, read-out: MIC grade, A. niger. The gist of the method: as §1
Assay [6] concerns Aspergillus fumigatus AF210. In words: MIC, YAG medium. As to conditions: 24 h at 35° C, MIC banded into grades; for MIC: Aspergillus fumigatus, read-out: MIC grade, A. fumigatus 210. In short, it runs like this: as §1
For assay [7], the system named is Aspergillus terreus AT4. In words: MIC, RPMI medium. As to conditions: for MIC grade, A. terreus: MIC banded into grades; for MIC: Aspergillus terreus, AT4, MIC banded into grades, read-out: MIC grade, A. terreus. The gist of the method:
(§2)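 Fungi are tested in RPMI buffered with 0.135 M MOPS (pH 7.0) plus 2% glucose, inoculum 1−2×10^4 cfu/mL, against doubling compound dilutions spanning 50-0.05 mg/L. After 24-48 h at 35° C, the MIC is the lowest concentration suppressing growth by >80% against drug-free control.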

Assay [8] deals with Candida parapsilosis. In words: MIC, RPMI medium. As to conditions: 24-48 h at 35° C., >80% growth inhibition, banded into grades; for MIC: Lodderomyces parapsilosis. The gist of the method:
as §2

Assay [9] relates to Candida glabrata. In words: MIC, RPMI medium. The settings on record: 24-48 h at 35° C., >80% growth inhibition, banded into grades; for MIC: Nakaseomyces glabratus. The gist of the method: as §2
The test system of assay [10] is Aspergillus fumigatus AF293. In words: MIC, RPMI medium. As to conditions: for MIC grade, A. fumigatus: MIC banded into grades; for MIC: Aspergillus fumigatus, AF293, MIC banded into grades, read-out: MIC grade, A. fumigatus. The gist of the method: as §2
Assay [11] concerns Candida krusei. Nature of the assay: MIC, RPMI medium. The settings on record: 24-48 h at 35° C., >80% growth inhibition, banded into grades; for MIC: Pichia kudriavzevii. In short, it runs like this: as §2
The test system of assay [12] is Aspergillus flavus. Nature of the assay: MIC, RPMI medium. As to conditions: MIC banded into grades; for MIC: Aspergillus flavus, read-out: MIC grade, A. flavus. The gist of the method: as §2
The subject of assay [13] is Candida tropicalis. Nature of the assay: MIC, RPMI medium. The settings on record: 24-48 h at 35° C., >80% growth inhibition, banded into grades; for MIC: Candida tropicalis. In short, it runs like this:
as §2

Assay [14] has as its system Aspergillus terreus AT49. In words: MIC, RPMI medium. The settings on record: for MIC grade, A. terreus 49: MIC banded into grades; for MIC: Aspergillus terreus, AT49, MIC banded into grades, read-out: MIC grade, A. terreus 49. The gist of the method:
as §2

Assay [15] relates to Aspergillus niger. Nature of the assay: MIC, RPMI medium. The settings on record: MIC banded into grades; for MIC: Aspergillus niger, read-out: MIC grade, A. niger. In short, it runs like this: as §2
Assay [16] concerns Aspergillus fumigatus AF210. In words: MIC, RPMI medium. The settings on record: for MIC grade, A. fumigatus 210: MIC banded into grades; for MIC: Aspergillus fumigatus, AF210, MIC banded into grades, read-out: MIC grade, A. fumigatus 210. In short, it runs like this: as §2
The test system of assay [17] is Candida albicans. In words: MIC, RPMI medium. As to conditions: 24-48 h at 35° C., >80% growth inhibition, banded into grades; for MIC: Candida albicans. In short, it runs like this:
as §2

Structures are written as SMILES. Values after ≈ are worked out from the molar mass of the structure shown.

As for `COC(=O)Cn1ccc(-c2cccs2)c1C(=O)C(=O)Nc1ccc(N2CCN(c3cc(C)cc(C)n3)CC2)cc1` [Example 87, (2-{4-[4-(4,6-Dimethyl-pyridin-2-yl)-piperazin-1-yl]-phenylaminooxalyl}-3-thiophen-2-yl-pyrrol-1-yl)-acetic acid methyl ester], the “MIC grade, A. terreus” value in [1] and in assay [7] was 2 (A grade of 2 represents an MIC of from 1 to 10 mg/L) throughout. Moreover, the “MIC grade, A. fumigatus” value in [2] and in [10] was 3 (A grade of 3 represents an MIC of less than 1 mg/L) in each case. The “MIC grade, A. flavus” value in assay [3] and in assay [12] was 1 (a grade of 1 represents an MIC of greater than 10 mg/L) each time. The “MIC grade, A. terreus 49” value is on record as 3 (A grade of 3 represents an MIC of less than 1 mg/L) in assay [4] and 2 (A grade of 2 represents an MIC of from 1 to 10 mg/L) in [14]. The “MIC grade, A. niger” value in assay [5] and in assay [15] was 3 (A grade of 3 represents an MIC of less than 1 mg/L) in each case. In addition, the “MIC grade, A. fumigatus 210” value in assay [6] and in [16] was 3 (A grade of 3 represents an MIC of less than 1 mg/L) throughout. Also, in assay [8], the “Candida MIC, C. parapsilosis” value is on record as 3 (A grade of 3 represents an MIC of less than 1 mg/L). Also, the “Candida MIC, C. glabrata” value in assay [9] is reported as 3 (A grade of 3 represents an MIC of less than 1 mg/L). Moreover, the “Candida MIC, C. krusei” value in assay [11] is given as 2 (A grade of 2 represents an MIC of from 1 to 10 mg/L). The “Candida MIC, C. tropicalis” value in [13] is listed as 3 (A grade of 3 represents an MIC of less than 1 mg/L). The “Candida MIC, C. albicans” value in assay [17] is on record as 2 (A grade of 2 represents an MIC of from 1 to 10 mg/L).

For `COCCn1ccc(-c2ccc(Cl)cc2)c1C(=O)C(=O)Nc1ccc(N2CCN(c3cc(C)cc(C)n3)CC2)cc1` [Example 59, 2-[3-(4-Chloro-phenyl)-1-(2-methoxy-ethyl)-1H-pyrrol-2-yl]-N-{4-[4-(4,6-dimethyl-pyridin-2-yl)-piperazin-1-yl]-phenyl}-2-oxo-acetamide], the MIC in assay [1] is 1 to 10 µg/mL (≈ 1.75 to 17.5 µM); in assay [2] it was 1 to 10 µg/mL (≈ 1.75 to 17.5 µM); in assay [3], greater than 10 µg/mL; in assay [4], 1 to 10 µg/mL (≈ 1.75 to 17.5 µM); in assay [5] it was greater than 10 µg/mL; in assay [6], 1 to 10 µg/mL (≈ 1.75 to 17.5 µM). Besides, the MIC is greater than 10 µg/mL in assay [7]; less than 1 µg/mL in [8]; less than 1 µg/mL in [9]; 1 to 10 µg/mL (≈ 1.75 to 17.5 µM) in [10]; 1 to 10 µg/mL (≈ 1.75 to 17.5 µM) in assay [11]; greater than 10 µg/mL in assay [12]. The minimal inhibitory concentration (MIC) in [13] was less than 1 µg/mL; in [14] it was greater than 10 µg/mL; in [15], greater than 10 µg/mL; in [16], 1 to 10 µg/mL (≈ 1.75 to 17.5 µM); in [17] it was less than 1 µg/mL.

Regarding `COC(=O)Cn1c(C)cc(-c2ccccc2)c1C(=O)C(=O)Nc1ccc(N2CCN(c3cc(C)cc(C)n3)CC2)cc1` [Example 52, (2-{4-[4-(4,6-Dimethyl-pyridin-2-yl)-piperazin-1-yl]-phenylaminooxalyl}-5-methyl-3-phenyl-pyrrol-1-yl)-acetic acid methyl ester], the “MIC grade, A. terreus” value in assay [1] and in [7] was 3 (A grade of 3 represents an MIC of less than 1 mg/L) each time. Besides, the “MIC grade, A. fumigatus” value in [2] and in [10] was 3 (A grade of 3 represents an MIC of less than 1 mg/L) throughout. For the same compound, the entries for the “MIC grade, A. flavus” value in assay [3] and in [12] were 3 (A grade of 3 represents an MIC of less than 1 mg/L) and 2 (A grade of 2 represents an MIC of from 1 to 10 mg/L), respectively. The “MIC grade, A. terreus 49” value in assay [4] and in [14] was 3 (A grade of 3 represents an MIC of less than 1 mg/L) in each case. Further, the “MIC grade, A. niger” value in [5] and in [15] was 3 (A grade of 3 represents an MIC of less than 1 mg/L) each time. The “MIC grade, A. fumigatus 210” value in [6] and in [16] was 3 (A grade of 3 represents an MIC of less than 1 mg/L) throughout. Besides, in assay [8], the “Candida MIC, C. parapsilosis” value is listed as 2 (A grade of 2 represents an MIC of from 1 to 10 mg/L). Moreover, the “Candida MIC, C. glabrata” value in assay [9] is 3 (A grade of 3 represents an MIC of less than 1 mg/L). The “Candida MIC, C. krusei” value in assay [11] was 3 (A grade of 3 represents an MIC of less than 1 mg/L). For the same compound, the “Candida MIC, C. tropicalis” value in assay [13] is 2 (A grade of 2 represents an MIC of from 1 to 10 mg/L). Besides, in assay [17], the “Candida MIC, C. albicans” value is given as 2 (A grade of 2 represents an MIC of from 1 to 10 mg/L).

For the compound `C=C(C)CN1CCN(c2ccc(NC(=O)C(=O)c3c(-c4ccccc4)cc(C)n3CCOC)c(F)c2)CC1` [Example 109, N-{2-Fluoro-4-[4-(2-methyl-allyl)-piperazin-1-yl]-phenyl}-2-[1-(2-methoxy-ethyl)-5-methyl-3-phenyl-1H-pyrrol-2-yl]-2-oxo-acetamide], the minimal inhibitory concentration (MIC) in [1], in assay [2], in assay [3], in [4], in [5] and in assay [6] was less than 1 µg/mL throughout. In addition, the minimum inhibitory concentration (MIC) in assay [7], in [8], in [9], in assay [10], in [11] and in [12] was less than 1 µg/mL in each case. Also, the minimal inhibitory concentration (MIC) in assay [13] was 1 to 10 µg/mL (≈ 1.93 to 19.3 µM); in assay [14], less than 1 µg/mL; in assay [15] it was less than 1 µg/mL; in [16], less than 1 µg/mL; in assay [17] it was less than 1 µg/mL.

`COCCn1c(C)cc(-c2ccccc2)c1C(=O)C(=O)Nc1ccc(N2CCN(CC(C)(C)C)CC2)cc1F` [Example 113, N-{4-[4-(2,2-Dimethyl-propyl)-piperazin-1-yl]-2-fluoro-phenyl}-2-[1-(2-methoxy-ethyl)-5-methyl-3-phenyl-1H-pyrrol-2-yl]-2-oxo-acetamide]: the MIC in assay [1], in assay [2], in [3], in assay [4], in assay [5] and in [6] was less than 1 µg/mL throughout. Moreover, the minimum inhibitory concentration (MIC) in assay [7] was less than 1 µg/mL; in assay [8] it was less than 1 µg/mL; in assay [9] it was less than 1 µg/mL; in assay [10], 1 to 10 µg/mL (≈ 1.87 to 18.7 µM); in [11] it was less than 1 µg/mL; in assay [12] it was 1 to 10 µg/mL (≈ 1.87 to 18.7 µM). Moreover, the minimum inhibitory concentration (MIC) in assay [13] is less than 1 µg/mL; in assay [14], 1 to 10 µg/mL (≈ 1.87 to 18.7 µM); in assay [15] it was less than 1 µg/mL; in assay [16], less than 1 µg/mL; in assay [17], less than 1 µg/mL.

For the compound `COCn1ccc(-c2ccccc2)c1C(=O)C(=O)Nc1ccc(N2CCN(c3cc(C)cc(C)n3)CC2)cc1` [Example 63, N-{4-[4-(4,6-Dimethyl-pyridin-2-yl)-piperazin-1-yl]-phenyl}-2-(1-methoxymethyl-3-phenyl-1H-pyrrol-2-yl)-2-oxo-acetamide], the minimal inhibitory concentration (MIC) in assay [1] was less than 1 µg/mL; in assay [2] it was less than 1 µg/mL; in assay [3], less than 1 µg/mL; in assay [4], less than 1 µg/mL; in assay [5] it was 1 to 10 µg/mL (≈ 1.91 to 19.1 µM); in assay [6], less than 1 µg/mL. The minimum inhibitory concentration (MIC) in assay [7], in [8], in [9], in [10], in assay [11] and in assay [12] was less than 1 µg/mL in each case. The MIC in assay [13] was less than 1 µg/mL; in assay [14] it was less than 1 µg/mL; in [15] it was less than 1 µg/mL; in [16], less than 1 µg/mL; in [17], 1 to 10 µg/mL (≈ 1.91 to 19.1 µM).

The MIC is the lowest concentration that inhibits growth of the organism.
